Test system: 1,2-propanediol dehydrogenase
Experiment: Substrate specificity of the enzyme on analogs of 1,2-propanediol using NAD
Type: biochemical, Neisseria
Design: concentration or dose not given beside the values
Conditions: substrate with NAD; relative to 1,2-propanediol = 100
Procedure: The following reagents were added to 12×75 mm plastic tubes:
To each test tube was added 100 μl of a bacterial lysate. Incubations varied in time from being read immediately and continuously for 4 minutes, to allowing the assay tubes to incubate one-half hour before reading. All procedures and incubations were carried out at room temperature.
The samples were read at 340 nm (ultraviolet) on a Perkin-Elmer double beam spectrophotometer. A Honeywell Electronik 194 recorder was used to record absorbency. The tests that were read immediately and continuously for 4 minutes were allowed to record for the same time period. Those tests read after 30 minutes were not read continuously, but had their absorbencies recorded after the incubation period [Activity (A) was determined in the 4 minute monitored assay and in the 30 minute assay].
In order to examine the specificity of the substrate with respect to the enzyme, it was assayed on several analogs of 1,2-propanediol using NAD.

With `OCC(O)CCl` (stereo not shown) [1 chloro 2,3-propanediol] the “% Reactivity” value was 0%.

For `CCC(O)CO` (stereo not shown) [1,2 butanediol], the “% Reactivity” value was 10%.

For `OCCO` [1,2 ethanediol], the “% Reactivity” value was 0%.

In the case of `CC(O)CO` (stereo not shown) [1,2-propanediol], the “% Reactivity” value is reported as 100%.

`OCCCO` [1,3 propanediol] was tested, and the “% Reactivity” value was 0%.

With `CCCO` [1-propanol] the “% Reactivity” value was 0%.

In the case of `CC(C)O` [2-propanol], the “% Reactivity” value is reported as 0%.

For `O=C(CO)CO` [Dihydroxyacetone], the “% Reactivity” value was 21%.

With `CCO` [Ethanol] the “% Reactivity” value was 0%.

For `OCC(O)CO` [Glycerol], the “% Reactivity” value was 1%.

Reference: patent US4166765A, “Detecting Neisseria bacteria” (Corning Glass Works, priority 1977, dated 1979)
